Assay: physchem
Details: saturated aqueous solution of the boron compound
Text: The pKa of the boron compound utilized herein may be determined as follows. […] Using an auto titrator, titrate the solution according to standard methods. The pKa of the boron compound is the pH at which the inflection point occurs in the resulting titration curve.

pKa: ~9.2
Structure (SMILES): OB(O)O [boric acid]
